Assay: Log of liquid dish neat product liquid-air partition coefficient
Type: physicochemical
Conditions: for Log of liquid dish neat product liquid-air partition coefficient (Comment Code K/L): code letter within the Comment Code cell

Row | Compound | Log of liquid dish neat product liquid-air partition coefficient (Comment Code K/L) | Comment Code: Log of liquid dish neat product liquid-air partition coefficient
1 | CCCCCCCC(=O)OCc1ccco1 [Material 336] | K (Log of liquid dish neat product liquid-air partition coefficient greater than or equal to 7) | –
2 | CCCCCC(=O)OCc1ccco1 [Material 338] | K (Log of liquid dish neat product liquid-air partition coefficient greater than or equal to 7) | –
3 | CCCCCCC(=O)OCc1ccco1 [Material 339] | K (Log of liquid dish neat product liquid-air partition coefficient greater than or equal to 7) | –
4 | CCC(=O)OC1CC2C3C=CCC3C1C2(C)C (stereo not shown) [Material 343] | K (Log of liquid dish neat product liquid-air partition coefficient greater than or equal to 7) | K (Log of liquid dish neat product liquid-air partition coefficient greater than or equal to 7)
5 | CCOC(=O)C12CCCC1C1CCC2C1 (stereo not shown) [Material 344] | K (Log of liquid dish neat product liquid-air partition coefficient greater than or equal to 7) | –
6 | CCOC(=O)C1CCC(C(=O)OCC)CC1 (stereo not shown) [Material 347] | K (Log of liquid dish neat product liquid-air partition coefficient greater than or equal to 7) | –
7 | CC(C)CC1CC(C)(O)CCO1 (stereo not shown) [Material 350] | K (Log of liquid dish neat product liquid-air partition coefficient greater than or equal to 7) | –
8 | C=CCCCCCCCCC#N [Material 352] | K (Log of liquid dish neat product liquid-air partition coefficient greater than or equal to 7) | –
9 | C/C=C1/CC2CC1C1CCC(=O)OC21 (stereo not shown) [Material 353] | K (Log of liquid dish neat product liquid-air partition coefficient greater than or equal to 7) | K (Log of liquid dish neat product liquid-air partition coefficient greater than or equal to 7)
10 | CCc1ccccc1CC(C)(C)C=O [Material 354] | – | K (Log of liquid dish neat product liquid-air partition coefficient greater than or equal to 7)
11 | CCOC(=O)OC1CCCCC1C(C)(C)C (stereo not shown) [Material 355] | – | K (Log of liquid dish neat product liquid-air partition coefficient greater than or equal to 7)
12 | CCc1ccccc1CC(C)(C)C=O [Material 356] | K (Log of liquid dish neat product liquid-air partition coefficient greater than or equal to 7) | –
13 | CC(O)C(C)/C=C1\C[C@H]2C[C@@H]1[C@@H]1C=CC[C@H]21 (stereo partly shown) [Material 359] | K (Log of liquid dish neat product liquid-air partition coefficient greater than or equal to 7) | K (Log of liquid dish neat product liquid-air partition coefficient greater than or equal to 7)
14 | CC(=O)OC1CC2C3C=CCC3C1C2(C)C (stereo not shown) [Material 360] | K (Log of liquid dish neat product liquid-air partition coefficient greater than or equal to 7) | K (Log of liquid dish neat product liquid-air partition coefficient greater than or equal to 7)
15 | CCc1ccc(CC(C)(C)C#N)cc1 [Material 361] | K (Log of liquid dish neat product liquid-air partition coefficient greater than or equal to 7) | –
16 | CCOC(C)OC1CCCCCCCCCCC1 (stereo not shown) [Material 363] | K (Log of liquid dish neat product liquid-air partition coefficient greater than or equal to 7) | –
17 | CC(=O)OCC=C(C)CCC=C(C)CCC=C(C)C [Material 368] | K (Log of liquid dish neat product liquid-air partition coefficient greater than or equal to 7) | –
18 | CC(C)=CCCC(C)=CCCC(C)=CCO [Material 369] | K (Log of liquid dish neat product liquid-air partition coefficient greater than or equal to 7) | –
19 | O=C1CCCCCCCCCCCCCCO1 [Material 370] | K (Log of liquid dish neat product liquid-air partition coefficient greater than or equal to 7) | –
20 | O=C1CCC=CCCCCCCCCCC1 [Material 371] | K (Log of liquid dish neat product liquid-air partition coefficient greater than or equal to 7) | –
21 | O=C1CCC=CCCCCCCCCCC1 [Material 372] | K (Log of liquid dish neat product liquid-air partition coefficient greater than or equal to 7) | –
22 | C=CCc1ccc(OC(C)=O)c(OC)c1 [Material 374] | K (Log of liquid dish neat product liquid-air partition coefficient greater than or equal to 7) | –
23 | C=CCc1ccc(O)c(OC)c1 [Material 375] | K (Log of liquid dish neat product liquid-air partition coefficient greater than or equal to 7) | –
24 | CCOC(=O)C1OC1(C)c1ccccc1 (stereo not shown) [Material 377] | K (Log of liquid dish neat product liquid-air partition coefficient greater than or equal to 7) | –
25 | C=CCCCCCCCCC(=O)OCC [Material 381] | K (Log of liquid dish neat product liquid-air partition coefficient greater than or equal to 7) | –
26 | CCCCCCCCCCCCCC(=O)OCC [Material 388] | K (Log of liquid dish neat product liquid-air partition coefficient greater than or equal to 7) | –

Row | Compound | Log of liquid dish neat product liquid-air partition coefficient (Comment Code K/L) | Comment Code: Log of liquid dish neat product liquid-air partition coefficient
27 | C=CC(O)(CC)CCC=C(C)C (stereo not shown) [Material 390] | K (Log of liquid dish neat product liquid-air partition coefficient greater than or equal to 7) | –
28 | CCCCCCCCCCCC(=O)OCC [Material 391] | K (Log of liquid dish neat product liquid-air partition coefficient greater than or equal to 7) | –
29 | CCCCCCCCCC(=O)OCC [Material 397] | K (Log of liquid dish neat product liquid-air partition coefficient greater than or equal to 7) | –
30 | CCOC(=O)C=Cc1ccccc1 [Material 400] | – | K (Log of liquid dish neat product liquid-air partition coefficient greater than or equal to 7)
31 | CCC1=CCCC(C)(C)C12C=CC(C)O2 (stereo not shown) [Material 413] | K (Log of liquid dish neat product liquid-air partition coefficient greater than or equal to 7) | –
32 | C=CC1(C)CCC(C(C)(C)O)CC1C(=C)C (stereo not shown) [Material 414] | K (Log of liquid dish neat product liquid-air partition coefficient greater than or equal to 7) | –
33 | CCOC(C)OCCc1ccccc1 (stereo not shown) [Material 415] | K (Log of liquid dish neat product liquid-air partition coefficient greater than or equal to 7) | –
34 | CC1=CCC(C=CC(C)C(C)O)C1(C)C (stereo not shown) [Material 416] | K (Log of liquid dish neat product liquid-air partition coefficient greater than or equal to 7) | –
35 | O=CCCC=C1CC2CC1C1CCCC21 (stereo not shown) [Material 418] | K (Log of liquid dish neat product liquid-air partition coefficient greater than or equal to 7) | –
36 | CC1CCOC(c2ccccc2)C1 (stereo not shown) [Material 420] | – | K (Log of liquid dish neat product liquid-air partition coefficient greater than or equal to 7)
37 | CCCCCCCCCCCC(OC)OC [Material 421] | K (Log of liquid dish neat product liquid-air partition coefficient greater than or equal to 7) | –
38 | c1ccc(Oc2ccccc2)cc1 [Material 428] | K (Log of liquid dish neat product liquid-air partition coefficient greater than or equal to 7) | –
39 | c1ccc(Cc2ccccc2)cc1 [Material 429] | K (Log of liquid dish neat product liquid-air partition coefficient greater than or equal to 7) | –
40 | CCCC(=O)OC(C)(C)Cc1ccccc1 [Material 432] | K (Log of liquid dish neat product liquid-air partition coefficient greater than or equal to 7) | –
41 | C=CC(C)CCCC(C)(C)O (stereo not shown) [Material 437] | – | K (Log of liquid dish neat product liquid-air partition coefficient greater than or equal to 7)
42 | CCCc1ccc(O)c(OC)c1 [Material 440] | – | K (Log of liquid dish neat product liquid-air partition coefficient greater than or equal to 7)
43 | C=C(C)C1CCC(C)C(OC(C)=O)C1 (stereo not shown) [Material 444] | K (Log of liquid dish neat product liquid-air partition coefficient greater than or equal to 7) | –
44 | CC(=O)CCC1C(C)=CCCC1(C)C (stereo not shown) [Material 448] | – | K (Log of liquid dish neat product liquid-air partition coefficient greater than or equal to 7)
45 | CCCCCCC1C(=O)CCC1C(=O)OC (stereo not shown) [Material 450] | K (Log of liquid dish neat product liquid-air partition coefficient greater than or equal to 7) | –
46 | c1ccc(COCc2ccccc2)cc1 [Material 454] | – | K (Log of liquid dish neat product liquid-air partition coefficient greater than or equal to 7)
47 | c1ccc(CCc2ccccc2)cc1 [Material 457] | K (Log of liquid dish neat product liquid-air partition coefficient greater than or equal to 7) | –
48 | C=CC1(C)CCC(C(C)C)=CC1C(=C)C (stereo not shown) [Material 461] | K (Log of liquid dish neat product liquid-air partition coefficient greater than or equal to 7) | –
49 | CCCCCCCC1CCCC(=O)O1 (stereo not shown) [Material 463] | K (Log of liquid dish neat product liquid-air partition coefficient greater than or equal to 7) | –
50 | CC=CC(=O)C1C(C)C=CCC1(C)C (stereo not shown) [Material 466] | K (Log of liquid dish neat product liquid-air partition coefficient greater than or equal to 7) | –
51 | C=CCCCCCCCCO [Material 470] | K (Log of liquid dish neat product liquid-air partition coefficient greater than or equal to 7) | –

Source: patent US20170333591A9, “ABSORBENT ARTICLE COMPRISING MALODOR REDUCTION COMPOSITIONS” (The Procter & Gamble Company, priority 2014, published 2017)
